The numbers were not newly measured in EP4582084A1, “CRYSTAL FORM OF KETOAMIDE DERIVATIVE AND PREPARATION METHOD THEREFOR” (Guangdong Raynovent Biotech Co., Ltd., priority 2022, dated 2024), which cites them from elsewhere.

pEC50: −log10 of the molar value.

For this data set, the system named is novel coronavirus. Particulars: in vitro, preclinical trials.

As usually defined, the pEC50 is the negative decadic logarithm of the EC50, by convention in mol/L. In the case of `Cn1cnc(Cn2c(=O)[nH]/c(=N\c3cc4cn(C)nc4cc3Cl)n(Cc3cc(F)c(F)cc3F)c2=O)n1` [S-217622], the pEC50 was 6.43.
